Source: PubChem BioAssay (NCI)
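These data come from cells grown in 96-well plates and exposed to compound for 48 hours at five concentrations. The concentration for full growth arrest is given as TGI.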

Experiments:
Test in all cases: NCI-60 cell line screen, 48 h
[1] = system: A498 renal
[2] = system: ACHN renal
[3] = system: CAKI-1 renal
[4] = system: DMS 273 small cell lung
[5] = system: LXFL 529 NSCLC
[6] = system: OVCAR-3 ovarian
[7] = system: SK-OV-3 ovarian
[8] = system: SNB-19 CNS
[9] = system: U251 CNS

SMILES | TGI [1] [µM] | TGI [2] [µM] | TGI [3] [µM] | TGI [4] [µM] | TGI [5] [µM] | TGI [6] [µM] | TGI [7] [µM] | TGI [8] [µM] | TGI [9] [µM]
N#CC(/C(CCCC(=O)Nc1cccc([N+](=O)[O-])c1)=N\NC(=O)c1c(O)ccc2ccccc12)c1nc2ccccc2s1 (stereo not given) | > 100 | > 100 | > 100 | 68.3 | > 100 | > 100 | > 100 | > 100 | > 100
O=C(N/C(=C\c1ccc(/C=C(\NC(=O)c2ccccc2)c2nc3c(O)nc(S)nc3[nH]2)cc1)c1nc2c(O)nc(S)nc2[nH]1)c1ccccc1 | > 100 | > 100 | > 100 | > 100 | > 100 | > 100 | > 100 | > 100 | > 100
COC1/C(=C\C(C)=O)c2ccccc2N1C(C)=O (stereo not given) | > 100 | > 100 | > 100 | > 100 | > 100 | > 100 | > 100 | > 100 | > 100
CC1(C)C(=O)/C=C\C(=O)C(C)(C)C(=O)/C=C\C(=O)C(C)(C)C2=CC=C(O2)C(C)(C)C(=O)/C=C\C1=O | 30.9 | 12.6 | 7.91 | 10.1 | 6.14 | 9.41 | 22.9 | 30.6 | 30.4
O=C(CCc1ccccc1)CC1OC(=O)C(Cl)=C1Cl (stereo not given) | 66.2 | 38.6 | 59.1 | 44 | 29.4 | 38.1 | > 100 | 38 | 30.4
N#Cc1ccc(C2SCc3nc4ccccc4n32)cc1 (stereo not given) | > 100 | > 100 | > 100 | > 100 | > 100 | > 100 | > 100 | > 100 | > 100
CSc1nnc(C(C#N)C#N)nn1 | > 100 |  | > 100 | > 100 | > 100 | > 100 | > 100 | > 100 | > 100
CCOC(=O)C1C(=O)CC(=O)C2CCCCC21 (stereo not given) | > 100 | > 100 | > 100 | > 100 | > 100 | > 100 | > 100 | > 100 | > 100
CC(=O)C1C(=O)C(=O)N(CCN2C(=O)C(=O)C(C(C)=O)C2=O)C1=O (stereo not given) | > 100 | > 100 | > 100 | > 100 | > 100 | > 100 | > 100 | > 100 | > 100
COC(=O)[C@@]12C3=NO[C@]1(C(=O)OC)C(O[Si](C)(C)C(C)(C)C)[C@@H](OC(C)=O)[C@@H](OC(C)=O)[C@@H]2[C@@H](OCc1ccccc1)CC3 (stereo not given in full) | > 100 | > 100 | > 100 | > 100 | > 100 | > 100 | > 100 | > 100 | > 100
COc1cc(O)c(C(=O)/C=C/c2ccc(OC)c(OCc3ccccc3)c2)c(OC)c1 |  | > 100 | > 100 | 1.76 | > 100 | > 100 | > 100 | > 100 | > 100
CC1=C2C=CC(=O)C[C@@]2(C)CCC1 | > 100 | > 100 | > 100 | > 100 | > 100 | > 100 | > 100 | > 100 | > 100
CCN(CC)c1ccc(C2N3CCCCC3[C@@H]3c4[nH]c5ccccc5c4CCN23)cc1 (stereo not given in full) | 28.2 | 74.7 | > 100 | > 100 | 55.6 | 71.4 | > 100 | > 100 | > 100
